Experimental data as given in ChEMBL document CHEMBL1201862, “PubChem BioAssay data set” (2004).
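Step 1: Grow cells in 96-well plates. Step 2: Expose to compound for 48 hours at 5 concentrations. Step 3: Interpolate endpoints linearly; if unreached, use highest concentration. At the GI50, growth is halved.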 Calls of active or inactive are those of the source. Rule as the data show it: active = GI50 up to about 1.1 µM and inactive = higher.

Tests used:
Assay in all cases: NCI anticancer screen, dose series, 48 h
OVCAR-3 = test system: OVCAR-3
NCI-H23 = test system: NCI-H23
IGROV-1 = test system: IGROV-1
786-0 = test system: 786-0
M14 = test system: M14
BT-549 = test system: BT-549
MDA-N = test system: MDA-N
NCI-H226 = test system: NCI-H226
MDA-MB-435 = test system: MDA-MB-435
UACC-257 = test system: UACC-257
COLO 205 = test system: COLO 205
EKVX = test system: EKVX
T47D = test system: T47D
SK-OV-3 = test system: SK-OV-3
A549 = test system: A549
HOP-62 = test system: HOP-62
Malme-3M = test system: Malme-3M
SR = test system: SR
HL-60 = test system: HL-60
NCI-H460 = test system: NCI-H460

C[C@@H]1S[C@H](c2c(F)cccc2Cl)n2c1nc1ccccc12
GI50 (OVCAR-3): 14.9 µM (inactive) | GI50 (NCI-H23): 14.5 µM (inactive) | GI50 (IGROV-1): 17.2 µM (inactive) | GI50 (786-0): 14.8 µM (inactive) | GI50 (M14): 15.2 µM (inactive) | GI50 (BT-549): 11.6 µM (inactive) | GI50 (MDA-N): 7.62 µM (inactive) | GI50 (NCI-H226): 19.9 µM (inactive) | GI50 (MDA-MB-435): 12.6 µM (inactive) | GI50 (UACC-257): 14.1 µM (inactive) | GI50 (COLO 205): 11.2 µM (inactive) | GI50 (EKVX): 22.1 µM (inactive) | GI50 (T47D): 22.5 µM (inactive) | GI50 (SK-OV-3): 28.4 µM (inactive) | GI50 (A549): 17.1 µM (inactive) | GI50 (HOP-62): 15.3 µM (inactive) | GI50 (Malme-3M): 14.8 µM (inactive) | GI50 (SR): 7.23 µM (inactive)

CN(C)Cc1cc(C(=O)/C=C/c2ccc(/C=C/C(=O)c3cc(CN(C)C)c(O)c(CN(C)C)c3)cc2)cc(CN(C)C)c1O
GI50 (OVCAR-3): 32.1 µM (inactive) | GI50 (NCI-H23): 18.7 µM (inactive) | GI50 (IGROV-1): 35.2 µM (inactive) | GI50 (HL-60): 14.1 µM (inactive) | GI50 (786-0): 19.6 µM (inactive) | GI50 (M14): 17 µM (inactive) | GI50 (BT-549): 18.6 µM (inactive) | GI50 (MDA-N): > 10 µM (inactive) | GI50 (MDA-MB-435): 24 µM (inactive) | GI50 (UACC-257): 24.8 µM (inactive) | GI50 (COLO 205): 14.4 µM (inactive) | GI50 (EKVX): 39.2 µM (inactive) | GI50 (T47D): > 100 µM (inactive) | GI50 (A549): 43 µM (inactive) | GI50 (HOP-62): 26.8 µM (inactive) | GI50 (Malme-3M): 34.6 µM (inactive) | GI50 (SR): 22.8 µM (inactive)

O=C(/C=C1\C[C@H]2C=Nc3ccccc3C(=O)N2C1)NCCCCNC(=O)/C=C1\C[C@H]2C=Nc3ccccc3C(=O)N2C1
GI50 (OVCAR-3): 7.82 µM (inactive) | GI50 (NCI-H23): 11.3 µM (inactive) | GI50 (IGROV-1): 14.5 µM (inactive) | GI50 (HL-60): 3.3 µM (inactive) | GI50 (786-0): 1.75 µM (inactive) | GI50 (NCI-H460): 17.7 µM (inactive) | GI50 (M14): 6.12 µM (inactive) | GI50 (BT-549): 12.9 µM (inactive) | GI50 (MDA-N): 11 µM (inactive) | GI50 (NCI-H226): 13.8 µM (inactive) | GI50 (MDA-MB-435): 7.4 µM (inactive) | GI50 (UACC-257): 10.3 µM (inactive) | GI50 (COLO 205): 4.21 µM (inactive) | GI50 (EKVX): 16.7 µM (inactive) | GI50 (T47D): 4.39 µM (inactive) | GI50 (SK-OV-3): 18.3 µM (inactive) | GI50 (A549): 20.7 µM (inactive) | GI50 (HOP-62): 17.2 µM (inactive) | GI50 (Malme-3M): 6.81 µM (inactive)

[O-]c1c2cc(-[n+]3c(-c4ccccc4)cc(-c4ccccc4)cc3-c3ccccc3)cc1CO[C@@H](c1ccccc1)[C@H](c1ccccc1)OCc1cccc(n1)CO[C@@H](c1ccccc1)[C@H](c1ccccc1)OC2
GI50 (OVCAR-3): 0.0299 µM (active) | GI50 (NCI-H23): 0.0569 µM (active) | GI50 (IGROV-1): 0.0388 µM (active) | GI50 (HL-60): 0.0215 µM (active) | GI50 (786-0): 0.0764 µM (active) | GI50 (NCI-H460): 0.056 µM (active) | GI50 (M14): 0.161 µM (active) | GI50 (BT-549): 0.057 µM (active) | GI50 (MDA-N): 0.0548 µM (active) | GI50 (MDA-MB-435): 0.0501 µM (active) | GI50 (UACC-257): 0.0803 µM (active) | GI50 (COLO 205): 0.0259 µM (active) | GI50 (EKVX): 0.0838 µM (active) | GI50 (T47D): 0.111 µM (active) | GI50 (SK-OV-3): 0.0775 µM (active) | GI50 (A549): 0.0536 µM (active) | GI50 (HOP-62): 0.169 µM (active) | GI50 (Malme-3M): 0.0363 µM (active) | GI50 (SR): 0.035 µM (active)

CCCCCCNC(=O)c1cc(NCc2cc(OC)ccc2OC)ccc1O
GI50 (OVCAR-3): 0.865 µM (active) | GI50 (NCI-H23): 24.7 µM (inactive) | GI50 (IGROV-1): 21.3 µM (inactive) | GI50 (HL-60): 14.4 µM (inactive) | GI50 (786-0): 27.9 µM (inactive) | GI50 (NCI-H460): 24.7 µM (inactive) | GI50 (M14): 18.7 µM (inactive) | GI50 (BT-549): 15.5 µM (inactive) | GI50 (MDA-N): 18.9 µM (inactive) | GI50 (NCI-H226): 20 µM (inactive) | GI50 (MDA-MB-435): 18.9 µM (inactive) | GI50 (UACC-257): 16.9 µM (inactive) | GI50 (COLO 205): 19 µM (inactive) | GI50 (EKVX): 23.9 µM (inactive) | GI50 (T47D): 13.5 µM (inactive) | GI50 (SK-OV-3): 13.1 µM (inactive) | GI50 (A549): 29.6 µM (inactive) | GI50 (Malme-3M): 22.5 µM (inactive)

Cc1ccc(CC(=O)Nc2ccc(NC(=O)/C=C/NC(=O)/C=C/c3ccc(-c4ccccc4)cc3)cc2C(=O)c2ccccc2)cc1
GI50 (OVCAR-3): 1.88 µM (inactive) | GI50 (NCI-H23): 1.85 µM (inactive) | GI50 (IGROV-1): 0.975 µM (active) | GI50 (HL-60): 16.9 µM (inactive) | GI50 (786-0): 1.6 µM (inactive) | GI50 (NCI-H460): 1.87 µM (inactive) | GI50 (M14): 2.56 µM (inactive) | GI50 (BT-549): 1.46 µM (inactive) | GI50 (MDA-N): 2.5 µM (inactive) | GI50 (NCI-H226): 2.42 µM (inactive) | GI50 (MDA-MB-435): 3.27 µM (inactive) | GI50 (UACC-257): 2.05 µM (inactive) | GI50 (COLO 205): 1.75 µM (inactive) | GI50 (EKVX): 1.32 µM (inactive) | GI50 (T47D): 2.84 µM (inactive) | GI50 (SK-OV-3): 1.85 µM (inactive) | GI50 (A549): 1.77 µM (inactive) | GI50 (HOP-62): 2.11 µM (inactive) | GI50 (Malme-3M): 3.39 µM (inactive)

c1ccc(C2(c3cc4ccccc4[nH]3)OCCO2)cc1
GI50 (OVCAR-3): 53.5 µM (inactive) | GI50 (NCI-H23): > 100 µM (inactive) | GI50 (IGROV-1): 34 µM (inactive) | GI50 (786-0): > 100 µM (inactive) | GI50 (NCI-H460): 36.9 µM (inactive) | GI50 (M14): 33.3 µM (inactive) | GI50 (BT-549): 75.7 µM (inactive) | GI50 (MDA-N): 49.1 µM (inactive) | GI50 (NCI-H226): 36.6 µM (inactive) | GI50 (MDA-MB-435): 31.4 µM (inactive) | GI50 (UACC-257): 31.6 µM (inactive) | GI50 (COLO 205): 27.9 µM (inactive) | GI50 (EKVX): 23.9 µM (inactive) | GI50 (T47D): 59.8 µM (inactive) | GI50 (SK-OV-3): 85.1 µM (inactive) | GI50 (A549): 39.4 µM (inactive) | GI50 (SR): 22.4 µM (inactive)

CCCSC1=N/C(=C\c2ccco2)C(=O)N1
GI50 (OVCAR-3): > 100 µM (inactive) | GI50 (NCI-H23): > 100 µM (inactive) | GI50 (IGROV-1): > 100 µM (inactive) | GI50 (786-0): > 100 µM (inactive) | GI50 (NCI-H460): > 100 µM (inactive) | GI50 (M14): > 100 µM (inactive) | GI50 (BT-549): > 100 µM (inactive) | GI50 (MDA-N): > 100 µM (inactive) | GI50 (NCI-H226): > 100 µM (inactive) | GI50 (MDA-MB-435): > 100 µM (inactive) | GI50 (UACC-257): > 100 µM (inactive) | GI50 (COLO 205): > 100 µM (inactive) | GI50 (EKVX): 67.3 µM (inactive) | GI50 (T47D): 46.2 µM (inactive) | GI50 (SK-OV-3): > 100 µM (inactive) | GI50 (A549): > 100 µM (inactive) | GI50 (HOP-62): > 100 µM (inactive) | GI50 (Malme-3M): > 100 µM (inactive)

O=C1CCc2cc3c(cc21)C(C(=O)O)CC3 (stereo not given)
GI50 (NCI-H23): > 100 µM (inactive) | GI50 (IGROV-1): > 100 µM (inactive) | GI50 (HL-60): > 100 µM (inactive) | GI50 (786-0): > 100 µM (inactive) | GI50 (NCI-H460): > 100 µM (inactive) | GI50 (M14): > 100 µM (inactive) | GI50 (BT-549): > 100 µM (inactive) | GI50 (MDA-N): > 100 µM (inactive) | GI50 (NCI-H226): > 100 µM (inactive) | GI50 (UACC-257): > 100 µM (inactive) | GI50 (COLO 205): > 100 µM (inactive) | GI50 (EKVX): > 100 µM (inactive) | GI50 (T47D): > 100 µM (inactive) | GI50 (SK-OV-3): > 100 µM (inactive) | GI50 (A549): > 100 µM (inactive) | GI50 (HOP-62): > 100 µM (inactive) | GI50 (Malme-3M): > 100 µM (inactive) | GI50 (SR): > 100 µM (inactive)

C[N+](C)(C)[BH-](Br)C(O)O (stereo not given)
GI50 (OVCAR-3): > 100 µM (inactive) | GI50 (NCI-H23): > 100 µM (inactive) | GI50 (IGROV-1): > 100 µM (inactive) | GI50 (HL-60): > 100 µM (inactive) | GI50 (786-0): > 100 µM (inactive) | GI50 (NCI-H460): > 100 µM (inactive) | GI50 (M14): > 100 µM (inactive) | GI50 (BT-549): > 100 µM (inactive) | GI50 (MDA-N): > 100 µM (inactive) | GI50 (MDA-MB-435): > 100 µM (inactive) | GI50 (UACC-257): > 100 µM (inactive) | GI50 (COLO 205): > 100 µM (inactive) | GI50 (EKVX): > 100 µM (inactive) | GI50 (T47D): > 100 µM (inactive) | GI50 (A549): > 100 µM (inactive) | GI50 (HOP-62): > 100 µM (inactive) | GI50 (SR): > 100 µM (inactive)

O=c1c(C(c2ccc(O)cc2)c2c(O)oc3ccccc3c2=O)c(O)oc2ccccc12
GI50 (OVCAR-3): 76.9 µM (inactive) | GI50 (NCI-H23): > 100 µM (inactive) | GI50 (IGROV-1): 66.2 µM (inactive) | GI50 (786-0): 58.2 µM (inactive) | GI50 (NCI-H460): > 100 µM (inactive) | GI50 (BT-549): 59.8 µM (inactive) | GI50 (MDA-N): 45.2 µM (inactive) | GI50 (NCI-H226): > 100 µM (inactive) | GI50 (MDA-MB-435): 98.9 µM (inactive) | GI50 (UACC-257): > 100 µM (inactive) | GI50 (COLO 205): 69.8 µM (inactive) | GI50 (EKVX): > 100 µM (inactive) | GI50 (T47D): > 100 µM (inactive) | GI50 (HOP-62): 96.8 µM (inactive) | GI50 (Malme-3M): 86.9 µM (inactive)
